{
  "source": "patent US6867305B2",
  "about": "“Synthesis of epothilones, intermediates thereto and analogues thereof” (Sloan-Kettering Institute for Cancer Research, priority 1996, dated 2005)",
  "key": {"[1]": {"system": "CCRF-CEM/VBL100 (vinblastine-resistant subline)", "test": "Tumor cell growth inhibition in vitro (XTT, 72 h)", "type": "cell-based, human", "procedure": "(§1) The fresh medium containing each drug was replenished every 7-14 days. […] In each case ,the drug-exposed cells were resuspended in fresh media for a minimum of 4 days before the experiments for the cell-growth inhibition was carried out.\n(§2) The cells were cultured at an initial density of 2-5×10^4 cells per ml. They were maintained in a 5% CO2-humidified atmosphere at 37° C. in RPMI mediun 1640 (GIBCO/BRL) containing penicillin (100 units/ml), streptomycin (100 μg/ml) (GIBCO/BRL), and 5% heat-inactivated fetal bovine serum. For solid tumor cells growing in a monolayer (such as MCF-7/Adr), cytotoxicitiy of the drug was determined in 96-well microtiter plates by using the sulforhodamine B method as described by Skehan et al (23) for measuring the cellular protein content. For cells that were grown in suspension (such as CCRF-CEM and its sublines), cytotoxicitiy was measured by using the 2,-3-bis(2-methoxy-4-nitro-5-sulfophenyl)-5carboxanilide)-2H terazodium hydroxide (XTT)-microculture tetrazonium method (24) in duplicate in 96-well microtiter plates. For both methods, the absorbance of each well was measured with a microplate reader (EL-340, Bio-Tek, Burlington, Vt.). Each run entailed six or seven concentrations of the tested drugs. Dose-effect relationship data were analyzed with the median-effect plot (25) by using a previously described computer program (26)."}, "[2]": {"system": "CCRF-CEM human T-cell acute lymphoblastic leukemia cells", "test": "Tumor cell growth inhibition in vitro (XTT, 72 h)", "type": "cell-based", "conditions": "CCRF-CEM; for pIC50: 72 h incubation, read-out: IC50", "procedure": "as §1, §2"}, "CCRF-CEM/VBL": {"system": "CCRF-CEM/VBL", "test": "Relative potency in vitro, very highly resistant MDR cells", "type": "cell-based, human", "procedure": "as §2"}, "[3]": {"system": "DC-3F hamster lung fibroblasts", "test": "Tumor cell growth inhibition in vitro", "type": "cell-based", "conditions": "read-out: IC50", "procedure": "as §1, §2"}, "[4]": {"system": "MCF-7/Adr mammary xenograft", "test": "Human tumor xenograft in nude mice", "type": "in vivo"}, "[5]": {"system": "MCF-7 human mammary adenocarcinoma", "test": "Tumor cell growth inhibition in vitro", "type": "cell-based", "conditions": "read-out: IC50", "procedure": "as §2, with “They were maintained in a 5% CO2-humidified atmosphere at 37° C. in RPMI mediun 1640 (GIBCO/BRL) containing penicillin (100 units/ml), streptomycin (100 μg/ml) (GIBCO/BRL), and 5% heat-inactivated fetal bovine serum.” left out"}, "MCF-7/Adr": {"system": "MCF-7/Adr", "test": "Tumor cell growth inhibition in vitro", "type": "cell-based, human", "conditions": "MCF-7/Adr", "procedure": "as §2, with “They were maintained in a 5% CO2-humidified atmosphere at 37° C. in RPMI mediun 1640 (GIBCO/BRL) containing penicillin (100 units/ml), streptomycin (100 μg/ml) (GIBCO/BRL), and 5% heat-inactivated fetal bovine serum.” left out"}, "[6]": {"system": "PC-3 prostate adenocarcinoma xenograft", "test": "Human tumor xenograft in nude mice", "type": "in vivo", "conditions": "PC-3, i.v. or i/p.", "procedure": "(§3) Depending on the tumor type, treatment started on day 10 to day 21 when subcutaneous tumor size reached 35-200 mm^3, except otherwise indicated. Tumor size and body-weight were recorded every other day (Q2D) and, for humane reasons, the animals were sacrificed when tumor size reached ≧10% of body-weight. Each group, including untreated control, consisted of 3-5 animals unless otherwise indicated.\n(§4) Athymic nude mice bearing the nu/nu gene were used for all human tumor xenografts. Outbred, Swiss-background mice were obtained from Charles River Laboratories. Male mice 8 weeks or older weighing 22 g and up were used for most experiments. The drug was administered via the tail vein for 6 hr.-i.v. infusion. Each individual mouse was confined in a perforated Falcon polypropylene tube restrainer for drug administration. Tumor volume was assessed by measuring length×width×height (or width) using a caliper. The programmable Harvard PHD2000 syringe pump (Harvard Apparatus) with multi-track was used for i.v. infusion. […] All animal studies were conducted in accordance with the guidelines of the National Institutes of Health “Guide for the Care and Use of Animals” and the protocol approved by the Memorial Sloan-Kettering Cancer Center's Institutional Animal Care and Use Committee. In keeping with the policy of this committee for the humane treatment of tumor-bearing animals, mice were euthanized when tumors reached ≧10% of their total body weight.\n(§5) Human tumor cells (5×10^6) or tumor tissue (30-50 mg) were implanted s.c. flank in nu/nu mice (Charles River Laboratories, Wilmington, Mass.). When tumor grew to a specified size, treatment was started by every-other day×5 with 6 hr i.v.-infusion, unless otherwise indicated. Tumor volume was measured with calipers in three dimensions (length×width×height or width). Body-weight changes and lethality were monitored every other day."}, "[7]": {"system": "K562 chronic myelocytic leukemia xenograft", "test": "Human tumor xenograft in nude mice", "type": "in vivo", "procedure": "FIG. 34 depicts tumor size in nude mice bearing human leukemia […] tumor following 6 mg/kg C-15-Aza-EpoB, Q2D×6 and 30 mg/kg dEpoF, Q2ED×6 (i.v. infusion […].). K562 tumor cells (1×10^7 in 0.2 mL) were inoculated to nude mice on day 0. Mice were treated with 6 mg/kg aza-EpoB, 6 h-i.v. infusion on days 20, 22, 24, 26, 28 and 30 (Δ, n=3). The same group of mice were then treated with 30 mg/kg dEpoF, 6 h-i.v. infusion on days 42, 44, 46, 48, 52, and 54 (Δ, n=3). […] The control mice (∘, n=3) received vehicle only.\nK562 tumor cells (1×10^7, in 0.2 ml/mouse) were implanted s.c. on day 0. […] The control mice (∘, n=4) received vehicle, Cremophor-ethanol (1:1), only. The vertical bars indicate mean tumor size in mm^3±S.E.\nas §3, §4, §5"}, "[8]": {"system": "HCT-116 colon carcinoma xenograft", "test": "Human tumor xenograft in nude mice", "type": "in vivo", "conditions": "HCT-116, i.v. infusion", "description": "Therapeutic efficacy of cancer chemotherapeutic agents varies with various factors including the tumor models used and the dosage of drug and schedules and routes of administration. […] In the present studies, we intended to compare the therapeutic effects of drugs near their maximal tolerated doses by measuring the extent of body-weight decreases and/or lethality.\nas §3, §4, §5"}},
  "note": "pIC50: −log10 of the molar value. Where “and” joins values, the source holds several entries; their conditions need not be identical. Identical values can stand only once. Like-named read-outs stand apart in the source and are kept apart here. Starred links: 1 amine or outer side, 2 acyl side, 3 side chain; linkers in the order of their positions; H or OH if unused. Positions of bridges follow the written chain, without caps; N, C: chain ends. Non-standard residues stand in square brackets, D forms with d. Residues, ends and D or L forms follow the SMILES beside them. Chains are numbered I, II in the order given. Actinocin(9to1) = Cc1c2oc3c(C)ccc(C(=O)[*:1])c3nc-2c(C(=O)[*:2])c(N)c1=O; NMeV = CN[C@H](C(=O)O)C(C)C; Sar = CNCC(=O)O",
  "data": [
    {"smiles": "CC1=CCC(C(C)=Cc2csc(C)n2)NC(=O)CC(O)C(C)(C)C(=O)C(C)C(O)C(C)CCC1", "note": "[15-epi-aza-dEpoB, 12,13,15-desoxy-15(R)-aza-epothilone B]", "values": [
      {"measurement": "pIC50", "setting": "[1]; CCRF-CEM/VBL100, 72 h, read-out: IC50", "value": 6.26},
      {"measurement": "cross-resistance (fold of resistance vs parent cell line)", "setting": "[1]; CCRF-CEM/VBL100 vs CCRF-CEM", "value": 4.6, "unit": "x"},
      {"measurement": "pIC50", "setting": "[2]", "value": 6.92}
    ]},
    {"smiles": "C/C1=C/C[C@@H](/C(C)=C/c2csc(C=O)n2)OC(=O)C[C@H](O)C(C)(C)C(=O)[C@H](C)[C@@H](O)[C@@H](C)CCC1", "note": "[21-oxo-dEpoB, 21-oxo-desoxyepothilone B]", "values": [
      {"measurement": "potency relative to dEpoB (times less potent)", "setting": "CCRF-CEM/VBL; MDR CCRF-CEM/VBL cells", "value": 5.1, "unit": "×"},
      {"measurement": "Fold of Resistance (B)/(A)", "setting": "CCRF-CEM/VBL; [IC50 CCRF-CEM/VBL]/[IC50 CCRF-CEM]", "value": 11.9, "unit": "x"},
      {"measurement": "pIC50", "setting": "CCRF-CEM/VBL; very highly resistant MDR CCRF-CEM/VBL cells, read-out: CCRF-CEM/VBL IC50", "value": 6.49},
      {"measurement": "potency relative to dEpoB (times less potent)", "setting": "[2]", "value": "about 3.7 ×"},
      {"measurement": "pIC50", "setting": "[2]", "value": 7.57}
    ]},
    {"smiles": "Cc1c2oc3c(C)ccc(C(=O)N[C@@H]4C(=O)N[C@H](C(C)C)C(=O)N5CCC[C@H]5C(=O)N(C)CC(=O)N(C)[C@@H](C(C)C)C(=O)O[C@@H]4C)c3nc-2c(C(=O)N[C@@H]2C(=O)N[C@H](C(C)C)C(=O)N3CCC[C@H]3C(=O)N(C)CC(=O)N(C)[C@@H](C(C)C)C(=O)O[C@@H]2C)c(N)c1=O", "note": "[Actinomycin D, actinomycin D, reference compound] (I: T[dV]P[Sar][NMeV] / II: T[dV]P[Sar][NMeV]; ester I:1-I:C, II:1-II:C; linker I:N-II:N via Actinocin(9to1))", "values": [
      {"measurement": "pIC50", "setting": "[3]", "value": "9.60 and 9.51"}
    ]},
    {"smiles": "COc1cccc2c1C(=O)c1c(O)c3c(c(O)c1C2=O)C[C@@](O)(C(=O)CO)C[C@@H]3O[C@H]1C[C@H](N)[C@H](O)[C@H](C)O1", "note": "[Adriamycin, doxorubicin, reference compound]", "values": [
      {"measurement": "Therapeutic Effect Rank Order", "setting": "[4]; i.p., ref 19 (Table 5)", "value": "dEpoB>Camptothecin>Adriamycin>Taxol"},
      {"measurement": "Therapeutic Effect Rank Order", "setting": "[4]; i.v. infusion", "value": "dEpoB>>VP-16, Taxol>VBL, Adriamycin"},
      {"measurement": "pIC50", "setting": "[5]; Homo sapiens, MCF7, MCF-7", "value": 7.09},
      {"measurement": "pIC50", "setting": "[5]; MCF-7", "value": 7.05},
      {"measurement": "pIC50", "setting": "MCF-7/Adr; Homo sapiens, NCI/ADR-RES", "value": 6.55},
      {"measurement": "pIC50", "setting": "MCF-7/Adr", "value": 6.50},
      {"measurement": "Therapeutic Effect Rank Order", "setting": "[6]", "value": "Taxol>dEpoB>>Adriamycin"},
      {"measurement": "Therapeutic Effect Rank Order", "setting": "[7]; K562, i.v. infusion, FIG. 3 & 4", "value": "dEpoB>>>VBL> Taxol> Adriamycin"},
      {"measurement": "therapeutic effect", "setting": "[7]; K562, dEpoB 30 mg/kg, Taxol 20 mg/kg 6 hr i.v. infusion, Adriamycin 3 mg/kg, vinblastine 2.5 mg/kg i.v., every other day from day 20 (FIG. 36)", "value": "only partial curative or remissive effects"}
    ]},
    {"smiles": "CCc1c2c(nc3ccc(OC(=O)N4CCC(N5CCCCC5)CC4)cc13)-c1cc3c(c(=O)n1C2)COC(=O)[C@]3(O)CC", "note": "[CPT-11, Irinotecan, reference compound]", "values": [
      {"measurement": "Therapeutic Effect Rank Order", "setting": "[8]", "value": "Taxol, CPT-11≈dEpoB, dEpoF"}
    ]}
  ]
}
